Data published in article PMC6444592, “Citrullination of HP1γ chromodomain affects association with chromatin” (Epigenetics & Chromatin, 2019).

System: mESCs
Test: live-cell single-particle tracking, 13.5 ms, jump distance analysis
Assay type: cell-based, mouse
Settings: for diffusion rate, effect of LIF withdrawal: −LIF 72 h versus +LIF
Experimental: Parental E14 mouse embryonic stem cell (mESC) line was profiled by transcriptome analysis, qPCR and potency assays and was routinely tested for mycoplasma contamination and tested negative. Cells were cultured in DMEM (Gibco) supplemented with 15% standard FCS (Gibco), 0.1 mM non-essential amino acids (Gibco), 1% penicillin/streptomycin, 2 mM L-glutamine (Gibco), 1 mM sodium pyruvate (Gibco), 0.1 mM β-mercaptoethanol (Life Technologies) and 10^6 units/l mLIF (ESGRO, Millipore). E14 cells were stored in incubators at 37 °C in 7.5% CO2 (100% humidity) and maintained in 0.1% gelatin coated 10-cm culture dishes with 1:6 passaging every 2 days. Media was changed on a daily basis. E14 ESCs expressing mouse mEos3.2–HaloTag-HP1 fusion proteins were generated by transfecting appropriate pSB7 plasmids into E14 cells using Lipofectamine 2000 transfection reagent (Invitrogen), followed by selection in 600 µg/ml geneticin (Life Technologies). After 2 weeks of geneticin selection, cells were sorted using a Sony SH800S cell sorter for the expression of mEos3.2. Differentiation of ESCs was induced by LIF withdrawal. ESCs cultured in complete ES cell media (+ LIF) were trypsinised and washed twice in 1x PBS to remove residual LIF, seeded into ES cell media without LIF and incubated for 24, 48 or 72 h.
An IX73 Olympus inverted microscope was used with circularly polarised laser beams aligned and focused at the back aperture of an Olympus 1.40 NA 100 × oil objective (Universal Plan Super Apochromat, 100 × , NA 1.40, UPLSAPO100XO/1.4). Continuous wavelength diode laser light sources used include a 561-nm (Cobolt, Jive 200, 200 mW) and a 405-nm laser (Stradus, Toptica, 405–100, 100 mW). Oblique angle illumination was achieved by aligning the laser off axis such that the emergent beam at the sample interface was near-collimated and incident at an angle slightly less than the critical angle θc ~ 67° for a glass/water interface. This generated a ~ 50 μm diameter excitation footprint. The power of the collimated beams at the back aperture of the microscope was 10 kW/cm^2 and 10–100 W/cm^2 for the 561-nm and 405-nm laser beams, respectively. The lasers were reflected by dichroic mirrors (Semrock, Di01-R405/488/561/635). The fluorescence emission was collected through the same objective and then further filtered using a combination of long-pass and band-pass filters (BLP01-561R and FF01-587/35 for 561 nm excitation). The emission signal was projected onto an EMCCD (Photometrics, Evolve 512 Delta) with an electron multiplication gain of 250 ADU/photon operating in a frame transfer mode.
mESCs expressing mEos3.2–HaloTag-tagged HP1γ were passaged 2 days before imaging onto 35-mm glass bottom dishes No 1.0 (MatTek Corporation P35G-1.0-14-C Case) in phenol red-free serum and LIF conditions, if not stated otherwise. Just before single-particle tracking (SPT) imaging experiments, cells were labelled with 0.5 nM HaloTag–JF549 ligand for at least 15 min, followed by two washes in PBS and a 30-min incubation at 37 °C in media, before imaging the cells in fresh phenol red-free serum and LIF conditions. Cells were under-labelled to prevent overlap of fluorophores during SPT. Using 561 nm excitation, fluorescence images were collected as movies of 10,000 frames at 13.5 ms or 1000 to 5000 frames at 500 ms exposure. For live-cell tracking, data were collected for three biological replicates on separate dishes and the average values compared.
Live-cell 13.5-ms single-molecule traces were analysed using software that detects single-molecule trajectories from SPT movies. Briefly, the code detected puncta positions in each image frame using a brightness-weighted centroid after applying a band-pass filter to remove low-frequency background and high-frequency noise from the image data. To track the HP1 single molecules, only fluorescent puncta smaller than 3 pixels and with a signal to noise greater than 8 were analysed. […]

With “HP1γWT: full-length mouse HP1γ wild type, as GST or mEos3.2–HaloTag fusion protein” the “Diffusion coefficient, Bound” value (+LIF, 13.5 ms, replicate i) was 0.100 µm2s-1, the “Diffusion coefficient, Diffusing” value (+LIF, 13.5 ms, replicate i) was 0.780 µm2s-1 and the Percentage, Bound (+LIF, 13.5 ms, replicate i) was 36.7%. For the same substance, the Percentage, Diffusing (+LIF, 13.5 ms, replicate i) was 63.3%, the “Diffusion coefficient, Bound” value (+LIF, 13.5 ms, replicate ii) was 0.100 µm2s-1 and the “Diffusion coefficient, Diffusing” value (+LIF, 13.5 ms, replicate ii) was 0.812 µm2s-1. The Percentage, Bound (+LIF, 13.5 ms, replicate ii) was 30%, the Percentage, Diffusing (+LIF, 13.5 ms, replicate ii) was 70% and the “Diffusion coefficient, Bound” value (+LIF, 13.5 ms, replicate iii) was 0.100 µm2s-1. The “Diffusion coefficient, Diffusing” value (+LIF, 13.5 ms, replicate iii) was 0.784 µm2s-1, the Percentage, Bound (+LIF, 13.5 ms, replicate iii) was 32.4% and the Percentage, Diffusing (+LIF, 13.5 ms, replicate iii) was 67.6%. For the same substance, the “Diffusion coefficient, Bound” value (+LIF, 13.5 ms, replicate iv) was 0.097 µm2s-1, the “Diffusion coefficient, Diffusing” value (+LIF, 13.5 ms, replicate iv) was 1.019 µm2s-1 and the Percentage, Bound (+LIF, 13.5 ms, replicate iv) was 49%. The Percentage, Diffusing (+LIF, 13.5 ms, replicate iv) was 51%, the “Diffusion coefficient, Bound” value (+LIF, 13.5 ms, replicate v) was 0.089 µm2s-1 and the “Diffusion coefficient, Diffusing” value (+LIF, 13.5 ms, replicate v) was 0.972 µm2s-1. The Percentage, Bound (+LIF, 13.5 ms, replicate v) was 38.8%, the Percentage, Diffusing (+LIF, 13.5 ms, replicate v) was 61.2% and the “Percentage of molecules, diffusing” value (+LIF, mESCs, 13.5 ms, mean ± SD (n = 5–9)) was 63%. The “diffusion rate, effect of LIF withdrawal” value (13.5 ms) was “no significant effect”, the “Diffusion coefficient, Bound” value (−LIF, 13.5 ms, replicate i) was 0.082 µm2s-1 and the “Diffusion coefficient, Diffusing” value (−LIF, 13.5 ms, replicate i) was 0.733 µm2s-1. The Percentage, Bound (−LIF, 13.5 ms, replicate i) was 51.4%, the Percentage, Diffusing (−LIF, 13.5 ms, replicate i) was 48.6% and the “Diffusion coefficient, Bound” value (−LIF, 13.5 ms, replicate ii) was 0.092 µm2s-1. The “Diffusion coefficient, Diffusing” value (−LIF, 13.5 ms, replicate ii) was 0.912 µm2s-1, the Percentage, Bound (−LIF, 13.5 ms, replicate ii) was 51% and the Percentage, Diffusing (−LIF, 13.5 ms, replicate ii) was 49%. The “Diffusion coefficient, Bound” value (−LIF, 13.5 ms, replicate iii) was 0.100 µm2s-1, the “Diffusion coefficient, Diffusing” value (−LIF, 13.5 ms, replicate iii) was 1.037 µm2s-1 and the Percentage, Bound (−LIF, 13.5 ms, replicate iii) was 31.3%. The Percentage, Diffusing (−LIF, 13.5 ms, replicate iii) was 68.7%, the “Diffusion coefficient, Bound” value (−LIF, 13.5 ms, replicate iv) was 0.100 µm2s-1 and the “Diffusion coefficient, Diffusing” value (−LIF, 13.5 ms, replicate iv) was 1.007 µm2s-1. For the same substance, the Percentage, Bound (−LIF, 13.5 ms, replicate iv) was 30.9%, the Percentage, Diffusing (−LIF, 13.5 ms, replicate iv) was 69.1% and the “Diffusion coefficient, Bound” value (−LIF, 13.5 ms, replicate v) was 0.100 µm2s-1. The “Diffusion coefficient, Diffusing” value (−LIF, 13.5 ms, replicate v) was 0.930 µm2s-1, the Percentage, Bound (−LIF, 13.5 ms, replicate v) was 27.9% and the Percentage, Diffusing (−LIF, 13.5 ms, replicate v) was 72.1%.

In the case of “HP1γR38/9A: HP1γ with alanine substitutions at amino acids 38 and 39 to mimic citrullination”, the “Diffusion coefficient, Bound” value (+LIF, 13.5 ms, replicate i) is reported as 0.090 µm2s-1, the “Diffusion coefficient, Diffusing” value (+LIF, 13.5 ms, replicate i) is reported as 0.746 µm2s-1 and the Percentage, Bound (+LIF, 13.5 ms, replicate i) is reported as 38.9%. The Percentage, Diffusing (+LIF, 13.5 ms, replicate i) was 61.1%, the “Diffusion coefficient, Bound” value (+LIF, 13.5 ms, replicate ii) was 0.100 µm2s-1 and the “Diffusion coefficient, Diffusing” value (+LIF, 13.5 ms, replicate ii) was 0.761 µm2s-1. For the same substance, the Percentage, Bound (+LIF, 13.5 ms, replicate ii) was 29.6%, the Percentage, Diffusing (+LIF, 13.5 ms, replicate ii) was 70.4% and the “Diffusion coefficient, Bound” value (+LIF, 13.5 ms, replicate iii) was 0.100 µm2s-1. For the same substance, the “Diffusion coefficient, Diffusing” value (+LIF, 13.5 ms, replicate iii) was 0.706 µm2s-1, the Percentage, Bound (+LIF, 13.5 ms, replicate iii) was 34.1% and the Percentage, Diffusing (+LIF, 13.5 ms, replicate iii) was 65.9%. For the same substance, the “Diffusion coefficient, Bound” value (+LIF, 13.5 ms, replicate iv) was 0.100 µm2s-1, the “Diffusion coefficient, Diffusing” value (+LIF, 13.5 ms, replicate iv) was 1.012 µm2s-1 and the Percentage, Bound (+LIF, 13.5 ms, replicate iv) was 21.5%. For the same substance, the Percentage, Diffusing (+LIF, 13.5 ms, replicate iv) was 78.5%, the “Diffusion coefficient, Bound” value (+LIF, 13.5 ms, replicate v) was 0.100 µm2s-1 and the “Diffusion coefficient, Diffusing” value (+LIF, 13.5 ms, replicate v) was 1.094 µm2s-1. The Percentage, Bound (+LIF, 13.5 ms, replicate v) was 13.1%, the Percentage, Diffusing (+LIF, 13.5 ms, replicate v) was 86.9% and the “Diffusion coefficient, Bound” value (+LIF, 13.5 ms, replicate vi) was 0.100 µm2s-1. The “Diffusion coefficient, Diffusing” value (+LIF, 13.5 ms, replicate vi) was 1.108 µm2s-1, the Percentage, Bound (+LIF, 13.5 ms, replicate vi) was 37.1% and the Percentage, Diffusing (+LIF, 13.5 ms, replicate vi) was 62.9%. For the same substance, the “percentages of molecules in diffusing and bound fractions, significance across conditions” value (WT and R38/9A, +/− LIF, p values > 0.967) was “ns”, the “diffusion coefficients, significance across conditions” value (WT and R38/9A, +/− LIF, p values > 0.999) was “no significant differences across conditions” and the “diffusion rate, effect of LIF withdrawal” value (13.5 ms) was “no significant effect”. The “Diffusion coefficient, Bound” value (−LIF, 13.5 ms, replicate i) was 0.075 µm2s-1, the “Diffusion coefficient, Diffusing” value (−LIF, 13.5 ms, replicate i) was 0.609 µm2s-1 and the Percentage, Bound (−LIF, 13.5 ms, replicate i) was 44.5%. The Percentage, Diffusing (−LIF, 13.5 ms, replicate i) was 55.5%, the “Diffusion coefficient, Bound” value (−LIF, 13.5 ms, replicate ii) was 0.100 µm2s-1 and the “Diffusion coefficient, Diffusing” value (−LIF, 13.5 ms, replicate ii) was 0.697 µm2s-1. For the same substance, the Percentage, Bound (−LIF, 13.5 ms, replicate ii) was 37.2%, the Percentage, Diffusing (−LIF, 13.5 ms, replicate ii) was 62.8% and the “Diffusion coefficient, Bound” value (−LIF, 13.5 ms, replicate iii) was 0.100 µm2s-1. The “Diffusion coefficient, Diffusing” value (−LIF, 13.5 ms, replicate iii) was 0.913 µm2s-1, the Percentage, Bound (−LIF, 13.5 ms, replicate iii) was 32.9% and the Percentage, Diffusing (−LIF, 13.5 ms, replicate iii) was 67.1%. The “Diffusion coefficient, Bound” value (−LIF, 13.5 ms, replicate iv) was 0.100 µm2s-1, the “Diffusion coefficient, Diffusing” value (−LIF, 13.5 ms, replicate iv) was 0.659 µm2s-1 and the Percentage, Bound (−LIF, 13.5 ms, replicate iv) was 34.6%. For the same substance, the Percentage, Diffusing (−LIF, 13.5 ms, replicate iv) was 65.4%, the “Diffusion coefficient, Bound” value (−LIF, 13.5 ms, replicate ix) was 0.100 µm2s-1 and the “Diffusion coefficient, Diffusing” value (−LIF, 13.5 ms, replicate ix) was 1.031 µm2s-1. For the same substance, the Percentage, Bound (−LIF, 13.5 ms, replicate ix) was 28.9%, the Percentage, Diffusing (−LIF, 13.5 ms, replicate ix) was 71.1% and the “Diffusion coefficient, Bound” value (−LIF, 13.5 ms, replicate v) was 0.100 µm2s-1. For the same substance, the “Diffusion coefficient, Diffusing” value (−LIF, 13.5 ms, replicate v) was 0.710 µm2s-1, the Percentage, Bound (−LIF, 13.5 ms, replicate v) was 39.6% and the Percentage, Diffusing (−LIF, 13.5 ms, replicate v) was 60.4%. For the same substance, the “Diffusion coefficient, Bound” value (−LIF, 13.5 ms, replicate vi) was 0.100 µm2s-1, the “Diffusion coefficient, Diffusing” value (−LIF, 13.5 ms, replicate vi) was 0.582 µm2s-1 and the Percentage, Bound (−LIF, 13.5 ms, replicate vi) was 38.6%. The Percentage, Diffusing (−LIF, 13.5 ms, replicate vi) was 61.4%, the “Diffusion coefficient, Bound” value (−LIF, 13.5 ms, replicate vii) was 0.100 µm2s-1 and the “Diffusion coefficient, Diffusing” value (−LIF, 13.5 ms, replicate vii) was 0.774 µm2s-1. The Percentage, Bound (−LIF, 13.5 ms, replicate vii) was 36.9%, the Percentage, Diffusing (−LIF, 13.5 ms, replicate vii) was 63.1% and the “Diffusion coefficient, Bound” value (−LIF, 13.5 ms, replicate viii) was 0.100 µm2s-1. The “Diffusion coefficient, Diffusing” value (−LIF, 13.5 ms, replicate viii) was 0.812 µm2s-1, the Percentage, Bound (−LIF, 13.5 ms, replicate viii) was 33.6% and the Percentage, Diffusing (−LIF, 13.5 ms, replicate viii) was 66.4%.
